# Test results reported in ChEMBL document CHEMBL1201862, “PubChem BioAssay data set” (2004).
# Activity calls are given as the source filed them.
# Legend:
# [1] = Luminescence Cell-Based Dose Response HTS to Identify Inhibitors of 5'UTR Stem-Loop Driven Prion Protein mRNA Translation in H4 Neuroglioblastoma Cells. [Related pubchem assays: 1827 (Project Summary), 1813 (Primary HTS)]; format: functional
# Paired box protein Pax-8 = Paired box protein Pax-8 (Homo sapiens, UniProt Q06710); assay: inhibitors of PAX8-driven TPO luciferase reporter, dose response, RMG-I cells, cherry-pick (AID 687027); format: functional, cell-based;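 note: luciferase reporter driven by Pax8 target thyroperoxidase promoter measured by SteadyGlo luminescence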
# Paired box protein Pax-8, sequence (Q06710 whole entry): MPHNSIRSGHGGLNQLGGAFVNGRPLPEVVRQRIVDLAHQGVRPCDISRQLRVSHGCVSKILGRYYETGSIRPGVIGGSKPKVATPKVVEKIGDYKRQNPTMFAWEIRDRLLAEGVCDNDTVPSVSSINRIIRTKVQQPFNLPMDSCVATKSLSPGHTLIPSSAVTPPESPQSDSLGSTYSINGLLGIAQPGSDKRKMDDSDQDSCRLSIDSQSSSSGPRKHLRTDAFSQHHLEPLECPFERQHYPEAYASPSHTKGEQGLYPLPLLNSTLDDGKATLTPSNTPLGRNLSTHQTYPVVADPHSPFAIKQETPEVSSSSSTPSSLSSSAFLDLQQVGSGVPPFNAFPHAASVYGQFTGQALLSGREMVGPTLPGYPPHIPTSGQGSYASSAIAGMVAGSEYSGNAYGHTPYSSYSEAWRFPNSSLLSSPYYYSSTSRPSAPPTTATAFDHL
# [2] = inhibitors of firefly luciferase expression or activity, dose response, H4 neuroglioma cells, luminescence (AID 1990); format: functional, cell-based
# [3] = target: Heat shock protein HSP 90-alpha (Homo sapiens, UniProt P07900); assay: Luminescence-based dose response biochemical high throughput screening assay for inhibitors of the Heat Shock Protein 90 (HSP90). [Related pubchem assays: 1831 (Summary AID.), 1846 (Confirmation screen.), 1789 (Primary screen.)]
# Hexokinase HKDC1 = target: T1, Hexokinase HKDC1 (Homo sapiens, UniProt Q2TB90); assay: HKDC1 hexokinase inhibitors, dose response, biochemical, W721R variant (AID 504729); format: functional
# T1 sequence (Q2TB90 whole entry): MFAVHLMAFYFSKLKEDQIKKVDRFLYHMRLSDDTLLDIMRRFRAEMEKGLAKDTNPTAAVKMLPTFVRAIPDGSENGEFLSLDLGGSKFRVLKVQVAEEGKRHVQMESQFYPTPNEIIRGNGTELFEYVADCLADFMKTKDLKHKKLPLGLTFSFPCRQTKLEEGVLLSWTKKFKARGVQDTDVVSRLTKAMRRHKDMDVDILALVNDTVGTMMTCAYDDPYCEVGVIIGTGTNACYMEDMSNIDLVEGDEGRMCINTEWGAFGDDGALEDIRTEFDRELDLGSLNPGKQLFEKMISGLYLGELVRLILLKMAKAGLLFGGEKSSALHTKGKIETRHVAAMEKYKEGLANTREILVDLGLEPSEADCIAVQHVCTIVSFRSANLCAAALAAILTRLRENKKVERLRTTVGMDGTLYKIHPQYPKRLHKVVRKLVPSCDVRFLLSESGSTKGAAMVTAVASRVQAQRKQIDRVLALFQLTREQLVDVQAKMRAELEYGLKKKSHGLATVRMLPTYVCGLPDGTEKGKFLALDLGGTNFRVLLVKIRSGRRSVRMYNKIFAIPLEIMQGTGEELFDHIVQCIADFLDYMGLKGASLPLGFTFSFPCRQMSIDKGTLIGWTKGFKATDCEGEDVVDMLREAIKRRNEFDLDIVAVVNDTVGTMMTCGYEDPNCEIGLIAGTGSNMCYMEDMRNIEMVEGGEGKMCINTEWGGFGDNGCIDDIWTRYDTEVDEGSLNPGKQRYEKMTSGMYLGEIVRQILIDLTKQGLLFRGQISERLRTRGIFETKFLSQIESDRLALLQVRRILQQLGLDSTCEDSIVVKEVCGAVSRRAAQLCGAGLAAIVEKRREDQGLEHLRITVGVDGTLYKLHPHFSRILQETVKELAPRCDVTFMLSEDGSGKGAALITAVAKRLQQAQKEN
# [4] = off-target signal loss in HeLa-CEM21 co-culture – HeLa F-luc CTL cells, cherry-picked, counter-screen for HIV-1 Env fusion inhibitor project, dose response (AID 652040); format: functional, cell-based;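 note: potency for signal decrease marking cytotoxic or nonspecific inhibition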
# Beta-galactosidase = Beta-galactosidase (Escherichia coli, UniProt Q8VNN2); assay: PubChem AID 485352; format: functional
# Beta-galactosidase, sequence (Q8VNN2 whole entry): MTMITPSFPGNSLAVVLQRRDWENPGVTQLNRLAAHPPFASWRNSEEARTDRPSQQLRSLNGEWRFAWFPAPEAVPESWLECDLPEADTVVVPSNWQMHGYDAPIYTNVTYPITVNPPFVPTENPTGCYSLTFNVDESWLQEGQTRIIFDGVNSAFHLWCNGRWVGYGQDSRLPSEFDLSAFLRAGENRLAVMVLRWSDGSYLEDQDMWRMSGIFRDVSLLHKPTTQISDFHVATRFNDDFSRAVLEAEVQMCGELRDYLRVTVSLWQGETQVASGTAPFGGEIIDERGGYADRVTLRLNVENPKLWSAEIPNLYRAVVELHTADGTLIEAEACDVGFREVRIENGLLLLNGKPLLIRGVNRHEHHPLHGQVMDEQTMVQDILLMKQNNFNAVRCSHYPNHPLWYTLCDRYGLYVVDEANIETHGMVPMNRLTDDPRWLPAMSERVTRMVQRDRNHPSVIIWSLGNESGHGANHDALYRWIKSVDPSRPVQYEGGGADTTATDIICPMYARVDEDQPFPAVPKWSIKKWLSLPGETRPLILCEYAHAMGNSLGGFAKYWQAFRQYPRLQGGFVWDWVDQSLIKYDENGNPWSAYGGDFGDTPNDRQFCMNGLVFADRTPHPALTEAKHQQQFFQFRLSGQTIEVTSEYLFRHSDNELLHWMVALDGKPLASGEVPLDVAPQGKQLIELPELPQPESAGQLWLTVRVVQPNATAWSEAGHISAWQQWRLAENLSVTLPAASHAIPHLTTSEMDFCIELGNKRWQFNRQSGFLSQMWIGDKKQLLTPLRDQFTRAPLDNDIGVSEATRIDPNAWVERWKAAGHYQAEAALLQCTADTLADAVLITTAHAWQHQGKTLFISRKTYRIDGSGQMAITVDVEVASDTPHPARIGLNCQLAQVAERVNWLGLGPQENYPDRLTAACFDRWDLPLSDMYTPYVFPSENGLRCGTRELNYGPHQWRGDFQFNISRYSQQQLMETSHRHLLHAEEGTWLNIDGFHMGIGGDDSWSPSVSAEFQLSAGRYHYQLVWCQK
# Vero = assay: cells; format: functional; settings: Chlorocebus sabaeus
# [5] = THP-1 cell cytotoxicity, dose response, cytotoxicity control for non-replicating M. tuberculosis project (AID 489025); format: functional
# [6] = target: T2, Sphingosine 1-phosphate receptor 4 (Homo sapiens, UniProt O95977); assay: Fluorescence dose response cell-based high throughput screening assay for antagonists of the Sphingosine 1-Phosphate Receptor 4 (S1P4). [Related pubchem assays: 1524 (Confirmation in triplicates.), 1510 (Primary screen.)]; format: functional
# T2 sequence (O95977 whole entry): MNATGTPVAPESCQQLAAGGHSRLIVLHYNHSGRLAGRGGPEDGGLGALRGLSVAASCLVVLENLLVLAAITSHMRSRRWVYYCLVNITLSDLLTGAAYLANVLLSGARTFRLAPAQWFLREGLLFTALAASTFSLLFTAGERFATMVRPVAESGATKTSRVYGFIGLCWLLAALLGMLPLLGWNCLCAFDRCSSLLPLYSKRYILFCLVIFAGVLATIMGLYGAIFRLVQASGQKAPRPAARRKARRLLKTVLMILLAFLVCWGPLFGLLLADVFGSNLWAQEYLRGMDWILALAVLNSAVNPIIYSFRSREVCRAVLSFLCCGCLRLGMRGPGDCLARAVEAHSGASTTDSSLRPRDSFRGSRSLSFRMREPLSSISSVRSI
smiles,measurement,setting,value
COc1cccc(/C=N/Nc2ccc([N+](=O)[O-])cn2)c1O,EC50,[1],340 nM (active)
same,AC50,Paired box protein Pax-8,6.41 µM (active)
same,EC50,[2],2.97 µM (active)
CCc1ccc(S(=O)(=O)/N=C2\C=C(Nc3ccc(C(=O)O)cc3)C(=O)c3ccccc32)cc1,IC50,[3],966 nM (active)
same,IC50,Hexokinase HKDC1,6.5 µM (active)
same,AC50,[4],1.29 µM (active)
Oc1c(C(c2ccccc2Cl)N2CCCC2)ccc2cccnc12 (stereo not given),EC50,Beta-galactosidase,> 40 µM (inactive)
same,CC50,Vero,17.1 µM (active)
same,CC50,[5],9.54 µM (active)
same,IC50,[6],2.25 µM (active)
